{"source": "patent US20190105367A1", "about": "“ANTIMICROBIAL 4-OXOQUINOLIZINES” (Emergent Product Development Gaithersburg Inc., priority 2011, published 2019)", "key": {"A. baumannii A14 [1]": {"tested_on": "A. baumannii A14", "experiment": "Preliminary MBC without and with sub-inhibitory polymyxin B (Example 4)", "format": "cell-based, Acinetobacter baumannii", "conditions": "A. baumannii A14; without polymyxin B; preliminary MBC; 1st experiment"}, "A. baumannii A401 [2]": {"tested_on": "A. baumannii A401", "experiment": "MIC without and with sub-inhibitory polymyxin B (Example 4)", "format": "cell-based, Acinetobacter baumannii", "conditions": "A baumannii A 401; for MIC: 2nd experiment"}, "A. baumannii A14 [3]": {"tested_on": "A. baumannii A14", "experiment": "MIC without and with sub-inhibitory polymyxin B (Example 4)", "format": "cell-based, Acinetobacter baumannii", "conditions": "A. baumannii A14, 2nd experiment"}, "A. baumannii NCTC 13301 [4]": {"tested_on": "A. baumannii NCTC 13301", "experiment": "Preliminary MBC without and with sub-inhibitory polymyxin B (Example 4)", "format": "cell-based, Acinetobacter baumannii", "conditions": "A. baumannii NCTC 13301, preliminary MBC; for MBC: 2nd experiment", "procedure,_shortened": "(§1)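 Incubation 18-20 h, 37° C. MBC = lowest conc. with ~90% fewer colonies than positive control (single/no colonies).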"}, "A. baumannii A390 [5]": {"tested_on": "A. baumannii A390", "experiment": "Preliminary MBC without and with sub-inhibitory polymyxin B (Example 4)", "format": "cell-based, Acinetobacter baumannii", "conditions": "for MBC: 2nd experiment", "procedure,_shortened": "as §1"}, "A. baumannii A14 [6]": {"tested_on": "A. baumannii A14", "experiment": "Preliminary MBC without and with sub-inhibitory polymyxin B (Example 4)", "format": "cell-based, Acinetobacter baumannii", "conditions": "2nd experiment", "procedure,_shortened": "as §1"}, "A. baumannii A473 [7]": {"tested_on": "A. baumannii A473", "experiment": "Preliminary MBC without and with sub-inhibitory polymyxin B (Example 4)", "format": "cell-based, Acinetobacter baumannii", "conditions": "for MBC: 2nd experiment", "procedure,_shortened": "as §1"}, "A. baumannii NCTC 13301 [8]": {"tested_on": "A. baumannii NCTC 13301", "experiment": "MIC without and with sub-inhibitory polymyxin B (Example 4)", "format": "cell-based, Acinetobacter baumannii", "conditions": "A. baumannii NCTC 13301, 1st experiment"}, "[9]": {"tested_on": "strains of A. baumannii and one strain of Acinetobacter sp.", "experiment": "MIC with sub-inhibitory concentrations (0.25x MIC) of polymyxin B, panel of Acinetobacter strains (Example 4)", "format": "cell-based"}, "A. baumannii ATCC 19606": {"tested_on": "A. baumannii ATCC 19606", "experiment": "Preliminary MBC without and with sub-inhibitory polymyxin B (Example 4)", "format": "cell-based, Acinetobacter baumannii", "conditions": "for MBC: 2nd experiment"}, "A. baumannii A401 [10]": {"tested_on": "A. baumannii A401", "experiment": "Preliminary MBC without and with sub-inhibitory polymyxin B (Example 4)", "format": "cell-based, Acinetobacter baumannii", "conditions": "for MBC: 2nd experiment"}, "A. baumannii A473 [11]": {"tested_on": "A. baumannii A473", "experiment": "MIC without and with sub-inhibitory polymyxin B (Example 4)", "format": "cell-based, Acinetobacter baumannii", "conditions": "A. baumannii A473"}, "A. baumannii A489": {"tested_on": "A. baumannii A489", "experiment": "MIC without and with sub-inhibitory polymyxin B (Example 4)", "format": "cell-based, Acinetobacter baumannii", "conditions": "A. baumannii A489"}, "A. baumannii A390 [12]": {"tested_on": "A. baumannii A390", "experiment": "MIC without and with sub-inhibitory polymyxin B (Example 4)", "format": "cell-based, Acinetobacter baumannii", "conditions": "A. baumannii A390"}, "[13]": {"conditions": "without polymyxin B, 1st experiment"}, "[14]": {"conditions": "+[…] polymyxin B, 1st experiment"}}}
{"substance": "8-[(3S)-3-aminocyclopentyl]-1- cyclopropyl-7-fluoro-9-methyl- 4-oxo-quinolizine-3-carboxylic acid [Compound 10, reference compound]", "values": [{"measurement": "MBC without PB", "setting": "A. baumannii A14 [1]", "result": 2, "unit": "µg/mL"}, {"measurement": "MIC", "setting": "A. baumannii A401 [2]; +0.06 μg/ml PB", "result": 1, "unit": "µg/mL"}, {"measurement": "MIC +0.06 μg/ml PB", "setting": "A. baumannii A401 [2]; +0.06 μg/ml polymyxin B, 1st experiment", "result": 1.00, "unit": "µg/mL"}, {"measurement": "MIC without PB/MIC + PB", "setting": "A. baumannii A401 [2]; ratio, PB 0.06 μg/ml, 1st experiment", "result": 2}, {"measurement": "MIC", "setting": "A. baumannii A401 [2]; without PB", "result": 1, "unit": "µg/mL"}, {"measurement": "MIC without PB", "setting": "A. baumannii A401 [2]; [13]", "result": 2, "unit": "µg/mL"}, {"measurement": "MIC", "setting": "A. baumannii A14 [3]; +0.06 μg/ml PB", "result": 2, "unit": "µg/mL"}, {"measurement": "MIC without PB/MIC + PB", "setting": "A. baumannii A14 [3]; +0.06 μg/ml PB", "result": 1}, {"measurement": "MIC", "setting": "A. baumannii A14 [3]; without PB", "result": 2, "unit": "µg/mL"}, {"measurement": "MBC", "setting": "A. baumannii NCTC 13301 [4]; +[…] PB", "result": 0.5, "unit": "µg/mL"}, {"measurement": "MBC +[…] PB", "setting": "A. baumannii NCTC 13301 [4]; [14]", "result": 1.00, "unit": "µg/mL"}, {"measurement": "MBC", "setting": "A. baumannii NCTC 13301 [4]; without PB", "result": 2, "unit": "µg/mL"}, {"measurement": "MBC without PB", "setting": "A. baumannii NCTC 13301 [4]; [13]", "result": 2, "unit": "µg/mL"}, {"measurement": "MBC", "setting": "A. baumannii A390 [5]; A. baumannii A390, +0.06 μg/ml PB", "result": 0.5, "unit": "µg/mL"}, {"measurement": "MBC", "setting": "A. baumannii A390 [5]; A. baumannii A390, without PB", "result": 1, "unit": "µg/mL"}, {"measurement": "MBC without PB", "setting": "A. baumannii A390 [5]; A. baumannii A390, without polymyxin B, 1st experiment", "result": 1, "unit": "µg/mL"}, {"measurement": "MBC", "setting": "A. baumannii A14 [6]; A. baumannii A14, +0.06 μg/ml PB", "result": 1, "unit": "µg/mL"}, {"measurement": "MBC", "setting": "A. baumannii A14 [6]; A. baumannii A14, without PB", "result": 2, "unit": "µg/mL"}, {"measurement": "MBC", "setting": "A. baumannii A473 [7]; A. baumannii A473, +0.06 μg/ml PB", "result": 0.5, "unit": "µg/mL"}, {"measurement": "MBC", "setting": "A. baumannii A473 [7]; A. baumannii A473, without PB", "result": 1, "unit": "µg/mL"}, {"measurement": "MBC without PB", "setting": "A. baumannii A473 [7]; A. baumannii A473, without polymyxin B, 1st experiment", "result": 0.5, "unit": "µg/mL"}, {"measurement": "MIC +[…] PB", "setting": "A. baumannii NCTC 13301 [8]; +[…] polymyxin B", "result": 1.00, "unit": "µg/mL"}, {"measurement": "MIC without PB/MIC + PB", "setting": "A. baumannii NCTC 13301 [8]; ratio, PB […]", "result": 8}, {"measurement": "MIC without PB", "setting": "A. baumannii NCTC 13301 [8]; without polymyxin B", "result": 8, "unit": "µg/mL"}, {"measurement": "Change of activity (MIC) in presence of polymyxin B compared to without polymyxin B", "setting": "[9]", "result": "less potentiated"}, {"measurement": "Range ratios MIC without PB/MIC with PB Oct. 1, 2008 n = 8", "setting": "[9]; 1st experiment", "result": "1-8"}, {"measurement": "MIC range with PB (0.25x MIC) Oct. 1, 2008 n = 8", "setting": "[9]; 1st experiment, […] polymyxin B, ATCC 19606, A329, A390 and A473 not taken", "result": "0.5 to 8", "unit": "µg/mL"}, {"measurement": "Range ratios MIC without PB/MIC with PB Oct. 14, 2008 n = 11", "setting": "[9]; 2nd experiment", "result": "1-8"}, {"measurement": "MIC range with PB (0.25x MIC) Oct. 14, 2008 n = 11", "setting": "[9]; 2nd experiment, 0.06 μg/ml polymyxin B, all strains except the ATCC strain", "result": "0.25 to 2", "unit": "µg/mL"}, {"measurement": "MBC", "setting": "A. baumannii ATCC 19606; A. baumannii ATCC 19606, +0.06 μg/ml PB", "result": 0.03, "unit": "µg/mL"}, {"measurement": "MBC +0.06 μg/ml PB", "setting": "A. baumannii ATCC 19606; A. baumannii ATCC 19606, +0.06 μg/ml polymyxin B, 1st experiment", "result": 0.03, "unit": "µg/mL"}, {"measurement": "MBC", "setting": "A. baumannii ATCC 19606; A. baumannii ATCC 19606, without PB", "result": 0.125, "unit": "µg/mL"}, {"measurement": "MBC", "setting": "A. baumannii A401 [10]; A baumannii A 401, +0.06 μg/ml PB", "result": 1, "unit": "µg/mL"}, {"measurement": "MBC +0.06 μg/ml PB", "setting": "A. baumannii A401 [10]; A baumannii A 401, +0.06 μg/ml polymyxin B, 1st experiment", "result": 1.00, "unit": "µg/mL"}, {"measurement": "MBC", "setting": "A. baumannii A401 [10]; A baumannii A 401, without PB", "result": 1, "unit": "µg/mL"}, {"measurement": "MBC without PB", "setting": "A. baumannii A401 [10]; A baumannii A 401, without polymyxin B, 1st experiment", "result": 1, "unit": "µg/mL"}, {"measurement": "MIC", "setting": "A. baumannii A473 [11]; +0.06 μg/ml PB, 2nd experiment", "result": 0.5, "unit": "µg/mL"}, {"measurement": "MIC without PB/MIC + PB", "setting": "A. baumannii A473 [11]; +0.06 μg/ml PB, 2nd experiment", "result": 0}, {"measurement": "MIC without PB", "setting": "A. baumannii A473 [11]; [13]", "result": 1, "unit": "µg/mL"}, {"measurement": "MIC", "setting": "A. baumannii A489; +[…] PB, 2nd experiment", "result": 0.5, "unit": "µg/mL"}, {"measurement": "MIC without PB/MIC + PB", "setting": "A. baumannii A489; +[…] PB, 2nd experiment", "result": 2}, {"measurement": "MIC +[…] PB", "setting": "A. baumannii A489; [14]", "result": 1.00, "unit": "µg/mL"}, {"measurement": "MIC without PB/MIC + PB", "setting": "A. baumannii A489; ratio, PB […], 1st experiment", "result": 1}, {"measurement": "MIC", "setting": "A. baumannii A489; without PB, 2nd experiment", "result": 1, "unit": "µg/mL"}, {"measurement": "MIC without PB", "setting": "A. baumannii A489; [13]", "result": 1, "unit": "µg/mL"}, {"measurement": "MIC", "setting": "A. baumannii A390 [12]; +0.06 μg/ml PB, 2nd experiment", "result": 0.5, "unit": "µg/mL"}, {"measurement": "MIC without PB/MIC + PB", "setting": "A. baumannii A390 [12]; +0.06 μg/ml PB, 2nd experiment", "result": 2}, {"measurement": "MIC", "setting": "A. baumannii A390 [12]; without PB, 2nd experiment", "result": 1, "unit": "µg/mL"}, {"measurement": "MIC without PB", "setting": "A. baumannii A390 [12]; [13]", "result": 1, "unit": "µg/mL"}]}
